ChEMBL document CHEMBL5370556, “Optimization, and biological evaluation of 3-O-β-chacotriosyl betulinic acid amide derivatives as novel small-molecule Omicron” (Eur J Med Chem, 2023)
Active and inactive are the calls of the source. No cut-off for these calls is given here.

Tests used:
Format in all cases: functional, organism-based
[1] = system: SARS-CoV-2; test: Antiviral activity against luciferase-expressing pseudovirus encoding SARS-CoV-2 Omicron expressing S protein R765A/K964A mutant infected in human 293T/ACE2 cells assessed as reduction of viral growth measured after 48 hrs by luciferase assay; settings: Severe acute respiratory syndrome coronavirus 2
[2] = system: SARS-CoV-2; test: Antiviral activity against luciferase-expressing pseudovirus encoding SARS-CoV-2 Omicron expressing S protein L303A/E309A mutant infected in human 293T/ACE2 cells assessed as reduction of viral growth measured after 48 hrs by luciferase assay; settings: Severe acute respiratory syndrome coronavirus 2
[3] = system: SARS-CoV-2; test: Antiviral activity against luciferase-expressing pseudovirus encoding SARS-CoV-2 Omicron expressing S protein L303A/E309A/R765A/K964A mutant infected in human 293T/ACE2 cells assessed as reduction of viral growth at 1.25 to 10 uM measured after 48 hrs by luciferase assay; settings: Severe acute respiratory syndrome coronavirus 2, dose 1.25-10 µM

C=C(C)[C@@H]1CC[C@]2(C(=O)Nc3ccc4ccccc4c3)CC[C@]3(C)[C@H](CC[C@@H]4[C@@]5(C)CC[C@H](O[C@@H]6O[C@H](CO)[C@@H](O[C@@H]7O[C@@H](C)[C@H](O)[C@@H](O)[C@H]7O)[C@H](O)[C@H]6O[C@@H]6O[C@@H](C)[C@H](O)[C@@H](O)[C@H]6O)C(C)(C)[C@@H]5CC[C@]43C)[C@@H]12
Activity [1]: Active
Activity [2]: Active
Activity [3]: inactive
